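The compound was tested at five concentrations on cells cultured in 96-well plates, with a 48-hour exposure period. GI50 is the concentration that inhibits growth by half.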 Calls of active or inactive are those of the source. No stated cut-off is given here; in the data, active = GI50 up to about 1.1 µM and inactive = higher.
How the values were obtained:
Experiment in all cases: inhibition of tumour cell growth, NCI panel, 48 h
MOLT-4 = test system: MOLT-4
SNB-19 = test system: SNB-19
NCI-H522 = test system: NCI-H522
OVCAR-8 = test system: OVCAR-8
BT-549 = test system: BT-549
RPMI-8226 = test system: RPMI-8226
HOP-92 = test system: HOP-92
UO-31 = test system: UO-31
SK-MEL-2 = test system: SK-MEL-2
Malme-3M = test system: Malme-3M
CAKI-1 = test system: CAKI-1
CCRF-CEM = test system: CCRF-CEM
SF-268 = test system: SF-268
EKVX = test system: EKVX
M14 = test system: M14
T47D = test system: T47D
MDA-N = test system: MDA-N
OVCAR-4 = test system: OVCAR-4
HCT-15 = test system: HCT-15
NCI-H23 = test system: NCI-H23
SK-MEL-28 = test system: SK-MEL-28
DU-145 = test system: DU-145
HCT-116 = test system: HCT-116
A549 = test system: A549
COLO 205 = test system: COLO 205
PC-3 = test system: PC-3
786-0 = test system: 786-0
MCF7 = test system: MCF7
SK-MEL-5 = test system: SK-MEL-5
LOX IMVI = test system: LOX IMVI
NCI-H226 = test system: NCI-H226
SR = test system: SR
Hs-578T = test system: Hs-578T
HT-29 = test system: HT-29
K562 = test system: K562
UACC-257 = test system: UACC-257
UACC-62 = test system: UACC-62
OVCAR-3 = test system: OVCAR-3
SW-620 = test system: SW-620
OVCAR-5 = test system: OVCAR-5
SNB-75 = test system: SNB-75
HL-60 = test system: HL-60
SN12C = test system: SN12C
SF-539 = test system: SF-539
A498 = test system: A498
ACHN = test system: ACHN
IGROV-1 = test system: IGROV-1
MDA-MB-435 = test system: MDA-MB-435
RXF 393 = test system: RXF 393
NCI/ADR-RES = test system: NCI/ADR-RES
KM12 = test system: KM12
HCC 2998 = test system: HCC 2998
U-251 = test system: U-251
SF-295 = test system: SF-295
MDA-MB-231 = test system: MDA-MB-231
HOP-62 = test system: HOP-62
NCI-H460 = test system: NCI-H460
TK-10 = test system: TK-10
SK-OV-3 = test system: SK-OV-3

Q: What does the source list for COc1cc(S(=O)(=O)Nc2ccc(-c3csc(N4C(=O)C(C)SC4c4ccccc4)n3)cc2)ccc1Cl (centres undefined)?
A: GI50 (MOLT-4): 33 µM (inactive); GI50 (SNB-19): 35.7 µM (inactive); GI50 (NCI-H522): 33.8 µM (inactive); GI50 (OVCAR-8): > 100 µM (inactive); GI50 (BT-549): 20.9 µM (inactive); GI50 (RPMI-8226): 38.4 µM (inactive); GI50 (HOP-92): 31.9 µM (inactive); GI50 (UO-31): > 100 µM (inactive); GI50 (SK-MEL-2): 0.979 µM (active); GI50 (Malme-3M): 80.4 µM (inactive); GI50 (CAKI-1): > 100 µM (inactive); GI50 (CCRF-CEM): 40 µM (inactive); GI50 (SF-268): 19.7 µM (inactive); GI50 (EKVX): 7.52 µM (inactive); GI50 (M14): > 100 µM (inactive); GI50 (T47D): 15.2 µM (inactive); GI50 (MDA-N): 19.5 µM (inactive); GI50 (OVCAR-4): 39.6 µM (inactive); GI50 (HCT-15): > 100 µM; GI50 (NCI-H23): 51.4 µM (inactive); GI50 (SK-MEL-28): 24.7 µM (inactive); GI50 (DU-145): 40.2 µM (inactive); GI50 (HCT-116): 34.8 µM (inactive); GI50 (A549): > 100 µM (inactive); GI50 (COLO 205): 27.2 µM (inactive); GI50 (PC-3): 19.9 µM (inactive); GI50 (786-0): 20 µM (inactive); GI50 (MCF7): 17.9 µM (inactive); GI50 (SK-MEL-5): 19.5 µM (inactive); GI50 (LOX IMVI): 10.1 µM (inactive); GI50 (NCI-H226): 0.0853 µM (active); GI50 (SR): 25 µM (inactive); GI50 (Hs-578T): 0.794 µM (active); GI50 (HT-29): 11.8 µM (inactive); GI50 (K562): 30.6 µM (inactive); GI50 (UACC-257): 37.4 µM (inactive); GI50 (UACC-62): 21.4 µM (inactive); GI50 (OVCAR-3): > 100 µM (inactive); GI50 (SW-620): 35.4 µM (inactive); GI50 (OVCAR-5): > 100 µM (inactive); GI50 (SNB-75): 0.0555 µM (active); GI50 (HL-60): 21.1 µM (inactive); GI50 (SN12C): 94.2 µM (inactive); GI50 (SF-539): 13.4 µM (inactive); GI50 (A498): 58.6 µM (inactive); GI50 (ACHN): > 100 µM (inactive); GI50 (IGROV-1): 17.5 µM (inactive); GI50 (MDA-MB-435): 24.6 µM (inactive); GI50 (RXF 393): 15.5 µM (inactive); GI50 (NCI/ADR-RES): > 100 µM (inactive); GI50 (KM12): 0.082 µM (active)

Q: What does the source list for COc1c2c(cc3oc(=O)ccc13)OC(C)(C)C=C2 [XANTHOXYLETIN]?
A: GI50 (MOLT-4): 23.8 µM (inactive); GI50 (SNB-19): 35.6 µM (inactive); GI50 (NCI-H522): 21 µM (inactive); GI50 (OVCAR-8): 24.2 µM (inactive); GI50 (BT-549): 25.6 µM (inactive); GI50 (RPMI-8226): 24.5 µM (inactive); GI50 (HCC 2998): 18.7 µM (inactive); GI50 (HOP-92): 7.29 µM (inactive); GI50 (UO-31): 25.8 µM (inactive); GI50 (SK-MEL-2): 23 µM (inactive); GI50 (Malme-3M): 30.1 µM (inactive); GI50 (U-251): 24.9 µM (inactive); GI50 (CAKI-1): 2.26 µM (inactive); GI50 (SF-268): 41.9 µM (inactive); GI50 (EKVX): 37.9 µM (inactive); GI50 (M14): 25.1 µM (inactive); GI50 (T47D): 1.48 µM (inactive); GI50 (MDA-N): 29.4 µM (inactive); GI50 (HCT-15): 23.6 µM; GI50 (NCI-H23): 23.6 µM (inactive); GI50 (SK-MEL-28): 32.6 µM (inactive); GI50 (DU-145): 20.4 µM (inactive); GI50 (HCT-116): 18.6 µM (inactive); GI50 (A549): 31.7 µM (inactive); GI50 (SF-295): 34.1 µM (inactive); GI50 (COLO 205): 25.4 µM (inactive); GI50 (786-0): 22.4 µM (inactive); GI50 (MCF7): 25.4 µM (inactive); GI50 (SK-MEL-5): 21.8 µM (inactive); GI50 (LOX IMVI): 21.8 µM (inactive); GI50 (NCI-H226): 41.1 µM (inactive); GI50 (SR): 11.5 µM (inactive); GI50 (Hs-578T): 29.9 µM (inactive); GI50 (MDA-MB-231): 19.5 µM (inactive); GI50 (HOP-62): 34.9 µM (inactive); GI50 (HT-29): 35.8 µM (inactive); GI50 (NCI-H460): 24.2 µM (inactive); GI50 (TK-10): 30.9 µM (inactive); GI50 (K562): 35.2 µM (inactive); GI50 (UACC-257): 31.7 µM (inactive); GI50 (UACC-62): 22.6 µM (inactive); GI50 (OVCAR-3): 37.9 µM (inactive); GI50 (SK-OV-3): 40.5 µM (inactive); GI50 (SW-620): 26.1 µM (inactive); GI50 (SNB-75): 22 µM (inactive); GI50 (HL-60): 15.8 µM (inactive); GI50 (SN12C): 29 µM (inactive); GI50 (SF-539): 36.6 µM (inactive); GI50 (ACHN): 27.9 µM (inactive); GI50 (IGROV-1): 27.6 µM (inactive); GI50 (MDA-MB-435): 27.2 µM (inactive); GI50 (NCI/ADR-RES): 26 µM (inactive); GI50 (KM12): 19.2 µM (inactive)

— ChEMBL document CHEMBL1201862, “PubChem BioAssay data set” (2004)
